Data as given in US8513271B2, “Pyrimidine compounds as delta opioid receptor modulators” (Janssen Pharmaceutica, NV, priority 2009, dated 2013).
“And” between values parts separate entries of the source, which are not always exact repeats. Equal entries are not always repeated. Where two headings read alike, the source gives them in different places.

Tests used:
[1] = target: T1, delta opioid receptor (Mus musculus, UniProt P32300); experiment: [35S]GTPγS binding assay in NG108-15 cell membranes (delta opioid functional assay), 200 nM screen; format: biochemical; details: NG108-15 cell membranes; for GTPγS δ-RelEfficacy @200 nM: 200 nM test compound, relative to calculated max of SNC80 dose response curve; for GTPγS δ-RelEfficacy @200 nM / EC50: averages if tested more than once; for EC50: GTPγS δ-opioid receptor EC50 (μM); for GTPγS δ-opioid receptor Rel Efficacy: relative efficacy from dose response
T1 construct: NG108-15 cell membranes were purchased from Applied Cell Sciences (Rockville, Md.); host or cells: NG108-15 cell membranes

[2] = system: CFA-induced paw radiant heat hypersensitivity; experiment: CFA-induced paw radiant heat hypersensitivity; format: in vivo, rat; details: Rattus norvegicus, po
[3] = target: T2, mu opioid receptor (Rattus norvegicus, UniProt P33535); experiment: Rat brain mu opioid receptor binding assay; details: μ-binding Ki, rat forebrain, [3H]DAMGO ligand
T2 construct: the forebrains were homogenized in Tris buffer in a Teflon®-glass homogenizer; from tissue; host or cells: forebrain of male Wistar rats, particulate (membrane) preparation

[4] = target: hMOR (mu opioid receptor) (Homo sapiens, UniProt P35372); experiment: [35S]GTPγS binding assays in CHO-hMOR cell membranes (mu opioid functional assay); format: biochemical; details: for inhibition at 10 µM: read-out: GTPγS μ-opioid receptor % Inh @10 μM
[5] = target: T3, delta opioid receptor (Rattus norvegicus, UniProt P33533); experiment: Rat brain delta opioid receptor binding assay; details: δ-binding (Naltrindole ligand) Ki, rat forebrain, [3H]naltrindole ligand
T3 construct: the forebrains were homogenized in Tris buffer in a Teflon®-glass homogenizer; from tissue; host or cells: forebrain of male Wistar rats, particulate (membrane) preparation

[6] = target: T1, delta opioid receptor; experiment: NG108-15, 24-well delta opioid receptor binding assay
[7] = 1 h, read-out: maximum % reversal @ time (min), rat, 30 mg/kg p.o., 0.5% HPMC, @ 60 min
[8] = 0.5 h, read-out: maximum % reversal @ time (min), rat, 30 mg/kg p.o., 0.5% HPMC, @ 30 min

Chain of hMOR (mu opioid receptor) (P35372 whole entry, looked up): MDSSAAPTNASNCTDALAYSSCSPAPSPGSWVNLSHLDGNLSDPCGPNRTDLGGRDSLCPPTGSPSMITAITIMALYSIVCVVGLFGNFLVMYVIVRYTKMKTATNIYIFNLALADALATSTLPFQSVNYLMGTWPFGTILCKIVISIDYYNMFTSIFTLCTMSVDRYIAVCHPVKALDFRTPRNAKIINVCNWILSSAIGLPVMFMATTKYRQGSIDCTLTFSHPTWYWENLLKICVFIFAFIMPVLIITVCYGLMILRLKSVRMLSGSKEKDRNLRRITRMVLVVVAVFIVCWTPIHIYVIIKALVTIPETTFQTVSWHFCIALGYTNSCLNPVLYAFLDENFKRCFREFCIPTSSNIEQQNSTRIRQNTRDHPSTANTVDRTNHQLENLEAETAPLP
T2 sequence (P33535 whole entry): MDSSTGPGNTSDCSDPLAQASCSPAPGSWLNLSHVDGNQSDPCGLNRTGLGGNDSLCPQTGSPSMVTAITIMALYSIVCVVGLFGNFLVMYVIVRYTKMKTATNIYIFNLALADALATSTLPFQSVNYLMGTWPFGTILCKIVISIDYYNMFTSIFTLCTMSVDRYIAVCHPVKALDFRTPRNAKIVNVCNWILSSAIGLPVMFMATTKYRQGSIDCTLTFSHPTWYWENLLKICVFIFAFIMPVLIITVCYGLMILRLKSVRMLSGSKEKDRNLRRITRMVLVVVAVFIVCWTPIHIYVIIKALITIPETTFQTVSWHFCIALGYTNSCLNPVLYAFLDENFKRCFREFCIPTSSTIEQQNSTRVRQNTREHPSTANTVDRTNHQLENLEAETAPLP
T1 sequence (P32300 whole entry): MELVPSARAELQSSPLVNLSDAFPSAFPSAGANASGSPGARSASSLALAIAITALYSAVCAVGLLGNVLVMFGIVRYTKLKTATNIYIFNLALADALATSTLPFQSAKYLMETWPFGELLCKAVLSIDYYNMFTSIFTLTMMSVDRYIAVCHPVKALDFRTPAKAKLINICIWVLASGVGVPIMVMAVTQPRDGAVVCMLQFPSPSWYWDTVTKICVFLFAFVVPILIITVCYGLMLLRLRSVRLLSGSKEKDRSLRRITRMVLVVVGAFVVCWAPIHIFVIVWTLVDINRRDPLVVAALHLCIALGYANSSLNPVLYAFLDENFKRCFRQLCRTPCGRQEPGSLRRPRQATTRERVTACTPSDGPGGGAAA
T3 sequence (P33533 whole entry): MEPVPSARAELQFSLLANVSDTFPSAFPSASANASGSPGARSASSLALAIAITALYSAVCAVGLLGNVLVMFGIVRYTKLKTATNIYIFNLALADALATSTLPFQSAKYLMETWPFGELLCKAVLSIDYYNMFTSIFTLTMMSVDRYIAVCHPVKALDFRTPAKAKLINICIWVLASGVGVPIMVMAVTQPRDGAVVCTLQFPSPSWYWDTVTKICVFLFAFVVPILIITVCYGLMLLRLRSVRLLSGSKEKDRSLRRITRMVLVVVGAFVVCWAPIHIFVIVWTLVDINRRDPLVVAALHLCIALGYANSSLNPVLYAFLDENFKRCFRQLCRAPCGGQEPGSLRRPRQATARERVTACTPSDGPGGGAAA

Row | Compound | GTPγS δ-RelEfficacy @200 nM [1] | EC50 [1] | GTPγS δ-opioid receptor Rel Efficacy [1] | ED50 ([2]; 2 h) [mg/kg] | inhibition in vivo at 100 mg/kg ([2]; 2 h, read-out: maximum % reversal @ time (min), rat, 100 mg/kg p.o., 0.5% HPMC, @ 120 min) [%] | Ki [3] [nM] | EC50 [4] [µM] | inhibition at 10 µM [4] [%] | Ki [5] [nM] | Ki [6] [nM] | inhibition in vivo at 30 mg/kg [2, 7] [%] | ED50 ([2]; 1 h) [mg/kg] | inhibition in vivo at 30 mg/kg [2, 8] [%]
1 | COc1ccc(Oc2nc(-c3cncc(SC)c3)ncc2NC[C@@H]2CCCN2)cc1 [Cpd 107, [4-(4-Methoxy-phenoxy)-2-(5-methylsulfanyl-pyridin-3-yl)-pyrimidin-5-yl]-pyrrolidin-2-(S)-ylmethyl-amine] | 1.046 | 0.0213 µM | 0.957 | 32 | 52.8 | 39 | 5.1 | 4.05 | 1 |  |  |  | 
2 | COc1ccc(Oc2nc(-c3cncc(C#N)c3)ncc2NC[C@@H]2CCCN2)cc1F [Cpd 132] |  | 0.015 µM | 1.042 |  |  | 61 | 9.28 | 9.4 |  | 0.4 |  |  | 
3 | COc1ccc(Oc2nc(-c3cncc(C#N)c3)ncc2NC[C@@H]2C[C@@H](F)CN2)cc1 [Cpd 134] |  | 0.004 µM | 1.087 |  |  | 27 | 2.78 | 1 |  | 0.0481 |  |  | 
4 | COc1ccc(Oc2nc(-c3cncc(OC)c3)ncc2NC[C@@H]2C[C@@H](F)CN2)cc1 [Cpd 235] | 0.962 | 0.00733 µM | 0.953 |  |  |  |  |  |  |  | 43.7 |  | 
5 | COc1ccc(Oc2nc(-c3cncc(C)c3)ncc2NC[C@@H]2C[C@@H](F)CN2)cc1 [Cpd 238] |  | 0.008 µM | 0.966 |  |  |  |  |  |  |  | 39.5 |  | 
6 | COc1ccc(Oc2nc(-c3cncc(C)c3)ncc2NC[C@@H]2CCCN2)cc1 [Cpd 253] |  | 0.0168 µM | 0.997 |  |  |  |  |  |  |  | 75.9 |  | 
7 | COc1ccc(Oc2nc(-c3cccnc3)ncc2N2CCNCC2)cc1 [Cpd 327, 4-(4-Methoxy-phenoxy)-5-piperazin-1-yl-2-pyridin-3-yl-pyrimidine] | 0.471 | 0.0527 µM | 1.037 |  |  |  |  | 4.26 |  |  | 102 | 14.3 | 
8 | COc1ccc(Oc2nc(-c3cccnc3)ncc2N2CCCNCC2)cc1 [Cpd 336] | 0.830 | 0.0502 µM | 1.009 |  |  |  |  | 17.1 |  |  |  |  | 23.4
9 | COc1ccc(Oc2nc(-c3cncc(OC)c3)ncc2N2CCCNCC2)cc1 [Cpd 346] |  | 0.047 µM | 1.031 |  |  |  |  |  |  |  |  |  | 37
10 | COc1ccc(Oc2nc(-c3cncc(C)c3)ncc2N2CCNCC2)cc1 [Cpd 351] |  | 0.0249 µM and 0.034 µM | 1.036 and 1.056 |  |  |  |  |  |  |  |  |  | 9.8
11 | COc1ccc(Oc2nc(-c3cccnc3)ncc2N2CCNC[C@@H]2C)cc1 [Cpd 354] |  | 0.026 µM | 1.050 |  |  |  |  |  |  |  | 24.7 |  | 
12 | COc1ccc(Oc2nc(-c3cccnc3)ncc2N2CCN[C@H](C)C2)cc1 [Cpd 357, 4-(4-Methoxy-phenoxy)-5-[3-(R)-methyl-piperazin-1-yl]-2-pyridin-3-yl-pyrimidine] |  | 0.005 µM | 0.929 |  |  |  | 1.83 | 11.5 |  |  |  |  | 
